Data on 48 compounds can be found in patent publication US12110289B2, “Heterocyclic compounds, preparation methods and uses thereof” (InventisBio Co., Ltd., priority 2020, dated 2024).

The structures appear in SMILES notation.

The subject of the first test is Lung cancer cell line NCI-H358 containing KRas G12C mutation. Nature of the test: Assay for cell proliferation (Cell-titer Glo, 5 days). As to conditions: Homo sapiens, NCI-H358, 120 h, NCI-H358, 5 days, Cell-titer Glo; read-out: IC50 (nM), Inhibition of NCI-H358 Cell Proliferation. It is filed as cell-based, human. As to the method:
One hundred fifty microliter (150 μL) of media containing 2000 cells per well were seeded into each well of a 96-well culture plate and left to attach overnight in a 37° C. incubator with 5% CO2. Diluted compounds of 0.75 μL for each well were added by liquid handler at a final concentration of 0.5% DMSO. Cells were treated for 5 days in the incubator. Cell-titer Glo (CTG) kit (Promega) was used to assess cell proliferation. Of note, 120 μL of CTG reagent was added to each well and incubated at RT for 10 minutes.
With `C=CC(=O)N1C[C@H](C)N(c2nc(=O)n(-c3c(C4CC4)nc(C)nc3C3CC3)c3nc(-c4ccccc4F)c(F)cc23)C[C@H]1C` [Compound 50], the IC50 was 107 nM.

As for `C=CC(=O)N1C[C@H](C)N(c2nc(=O)n(-c3c(C4CC4)nc(C)nc3C3CC3)c3nc(-c4c(N)cccc4F)c(F)cc23)C[C@H]1C` [Compound 51], the IC50 is 12.5 nM.

With `C=CC(=O)N1[C@H](C)CN(c2nc(=O)n(-c3c(C4CC4)nc(C)nc3C3CC3)c3nc(-c4ccccc4F)c(F)cc23)C[C@@H]1C` [Compound 53], the IC50 is 617 nM.

Take `C=CC(=O)N1[C@H](C)CN(c2nc(=O)n(-c3c(C4CC4)nc(C)nc3C3CC3)c3nc(-c4c(N)cccc4F)c(F)cc23)C[C@@H]1C` [Compound 54]: the IC50 came out at 34.6 nM.

Turning to `C=CC(=O)N1[C@H](C)CN(c2nc(=O)n(-c3c(C4CC4)nc(C)nc3C3CC3)c3nc(-c4c(O)cccc4F)c(F)cc23)C[C@@H]1C` [Compound 55], the IC50 came to 74.3 nM.

Regarding `C=CC(=O)N1CCN(c2nc(=O)n(-c3c(C(C)C)nc(N(C)S(C)(=O)=O)nc3C(C)C)c3nc(-c4ccccc4F)c(F)cc23)[C@@H](C)C1` [Compound 56], the IC50 is 27 nM.

As to `C=CC(=O)N1CCN(c2nc(=O)n(-c3c(C)ccnc3C(C)C)c3nc(-c4cccc5[nH]nc(N)c45)c(F)cc23)[C@@H](C)C1` [Compound 59], the IC50 was greater than 3000 nM.

For the compound `C=CC(=O)N1CCN(c2nc(=O)n(-c3c(C)cc(S(C)(=O)=O)nc3C(C)C)c3nc(-c4c(O)cccc4F)c(F)cc23)[C@@H](C)C1` [Compound 60], the IC50 was found to be 81.7 nM.

On to `C=CC(=O)N1CCN(c2nc(=O)n(-c3c(C4CC4)nc(OC)nc3C3CC3)c3nc(-c4ccccc4F)c(F)cc23)[C@@H](C)C1` [Compound 61], for which the IC50 was 71.2 nM.

Take `C=CC(=O)N1CCN(c2nc(=O)n(-c3c(C4CC4)nc(OC)nc3C3CC3)c3nc(-c4c(O)cccc4F)c(F)cc23)[C@@H](C)C1` [Compound 62]: the IC50 was 15.9 nM.

On to `C=CC(=O)N1CCN(c2nc(=O)n(-c3c(C(C)C)nc4c(ncn4C)c3C)c3nc(-c4ccccc4F)c(Cl)cc23)[C@@H](C)C1` [Compound 65], for which the IC50 was 17.6 nM.

Regarding `C=CC(=O)N1CCN(c2nc(=O)n(-c3c(C(C)C)cc4scnc4c3C)c3nc(-c4ccccc4F)c(Cl)cc23)[C@@H](C)C1` [Compound 66], the IC50 was found to be 19.9 nM.

On to `C=CC(=O)N1CCN(c2nc(=O)n(-c3c(C(C)C)cc4c(ncn4C)c3C)c3nc(-c4ccccc4F)c(Cl)cc23)[C@@H](C)C1` [Compound 67], for which the IC50 was 46.5 nM.

With `C=CC(=O)N1CCN(c2nc(=O)n(-c3c(C)cc4scnc4c3C(C)C)c3nc(-c4ccccc4F)c(Cl)cc23)[C@@H](C)C1` [Compound 68], the IC50 came to 344 nM.

`C=CC(=O)N1CCN(c2nc(=O)n(-c3cc4ncn(C)c4nc3C(C)C)c3nc(-c4ccccc4F)c(Cl)cc23)[C@@H](C)C1` [Compound 70]: the IC50 came out at 15.1 nM.

`C=CC(=O)N1CCN(c2nc(=O)n(-c3ccc4scnc4c3C(C)C)c3nc(-c4ccccc4F)c(Cl)cc23)[C@@H](C)C1` [Compound 71]: the IC50 is 20.1 nM.

Regarding `C=CC(=O)N1CCN(c2nc(=O)n(-c3c(C(C)C)nc4c(ncn4C)c3C)c3nc(-c4ccccc4F)c(F)cc23)[C@@H](C)C1` [Compound 73], the IC50 worked out at 66 nM.

As to `C=CC(=O)N1CCN(c2nc(=O)n(-c3c(C4CC4)nc(OC)nc3C3CC3)c3nc(-c4c(N)cccc4F)c(F)cc23)[C@@H](C)C1` [Compound 74], the IC50 was found to be 5.7 nM.

For `C=CC(=O)N1CCN(c2nc(=O)n(-c3c(C(C)C)nc(C)nc3C(C)C)c3nc(-c4c(O)cccc4F)c(F)cc23)[C@@H](C)C1` [Compound 77], the IC50 came to 8.6 nM.

In the case of `C=CC(=O)N1CCN(c2nc(=O)n(-c3c(C(C)C)nc(C)nc3C(C)C)c3nc(-c4c(N)cccc4F)c(F)cc23)[C@@H](C)C1` [Compound 78], the IC50 stood at 10.4 nM.

Take `C=CC(=O)N1C[C@H](C)N(c2nc(=O)n(-c3c(C4CC4)nc(OC)nc3C3CC3)c3nc(-c4c(O)cccc4F)c(F)cc23)C[C@H]1C` [Compound 79]: the IC50 came to 12.9 nM.

Take `C=CC(=O)N1C[C@H](C)N(c2nc(=O)n(-c3c(C4CC4)nc(OC)nc3C3CC3)c3nc(-c4c(N)cccc4F)c(F)cc23)C[C@H]1C` [Compound 80]: the IC50 worked out at 8.1 nM.

For the compound `C=CC(=O)N1CCN(c2nc(=O)n(-c3c(C)cc(OC)nc3C(C)C)c3nc(-c4c(O)cccc4F)c(F)cc23)[C@@H](C)C1` [Compound 81], the IC50 came out at 35.9 nM.

Regarding `C=CC(=O)N1CCN(c2nc(=O)n(-c3c(C(C)C)nc(N4CCNCC4)nc3C(C)C)c3nc(-c4c(O)cccc4F)c(Cl)cc23)[C@@H](C)C1` [Compound 82], the IC50 stood at 10.8 nM.

As for `C=CC(=O)N1CCN(c2nc(=O)n(-c3c(C(C)C)nc(N4CCNCC4)nc3C(C)C)c3nc(-c4c(N)cccc4F)c(Cl)cc23)[C@@H](C)C1` [Compound 83], the IC50 stood at 5.9 nM.

In the case of `C=CC(=O)N1C[C@H](C)N(c2nc(=O)n(-c3c(C(C)C)nc(N4CCNCC4)nc3C(C)C)c3nc(-c4ccccc4F)c(Cl)cc23)C[C@H]1C` [Compound 84], the IC50 was 6.9 nM.

In the case of `C=CC(=O)N1C[C@H](C)N(c2nc(=O)n(-c3c(C4CC4)nc(N4CCNCC4)nc3C3CC3)c3nc(-c4ccccc4F)c(Cl)cc23)C[C@H]1C` [Compound 85], the IC50 was found to be 9.7 nM.

Consider `C=CC(=O)N1C[C@H](C)N(c2nc(=O)n(-c3c(C4CC4)nc(N4CCNCC4)nc3C3CC3)c3nc(-c4c(O)cccc4F)c(Cl)cc23)C[C@H]1C` [Compound 86], for which the IC50 came to 8.6 nM.

For the compound `C=CC(=O)N1C[C@H](C)N(c2nc(=O)n(-c3c(C(C)C)nc(N4CCNCC4)nc3C(C)C)c3nc(-c4c(N)cccc4F)c(Cl)cc23)C[C@H]1C` [Compound 87], the IC50 worked out at 4.1 nM.

As for `C=CC(=O)N1CCN(c2nc(=O)n(-c3c(C4CC4)nc(N4CCNCC4)nc3C3CC3)c3nc(-c4c(O)cccc4F)c(Cl)cc23)[C@@H](C)C1` [Compound 88], the IC50 was determined as 21.2 nM.

`C=CC(=O)N1CCN(c2nc(=O)n(-c3c(C4CC4)nc(N4CCN(C)CC4)nc3C3CC3)c3nc(-c4c(O)cccc4F)c(Cl)cc23)[C@@H](C)C1` [Compound 89]: the IC50 is 1.5 nM.

Consider `C=CC(=O)N1CCN(c2nc(=O)n(-c3c(C4CC4)nc(N4CCN(C)CC4)nc3C3CC3)c3nc(-c4ccccc4F)c(Cl)cc23)[C@@H](C)C1` [Compound 91], for which the IC50 turned out to be 7.8 nM.

With `C=CC(=O)N1CCN(c2nc(=O)n(-c3c(C4CC4)nc(N4CCNCC4)nc3C3CC3)c3nc(-c4c(N)cccc4F)c(Cl)cc23)[C@@H](C)C1` [Compound 92], the IC50 was 2.8 nM.

For the compound `C=CC(=O)N1CCN(c2nc(=O)n(-c3c(C4CC4)nc(N4CCN(C)CC4)nc3C3CC3)c3nc(-c4c(N)cccc4F)c(Cl)cc23)[C@@H](C)C1` [Compound 93], the IC50 is 1.8 nM.

Regarding `C=CC(=O)N1C[C@H](C)N(c2nc(=O)n(-c3c(C(C)C)nc(N4CCNCC4)nc3C(C)C)c3nc(-c4ccccc4F)c(F)cc23)C[C@H]1C` [Compound 94], the IC50 turned out to be 37.5 nM.

Turning to `C=CC(=O)N1C[C@H](C)N(c2nc(=O)n(-c3c(C(C)C)nc(N4CCNCC4)nc3C(C)C)c3nc(-c4c(O)cccc4F)c(F)cc23)C[C@H]1C` [Compound 95], the IC50 was determined as 14.6 nM.

`C=CC(=O)N1C[C@H](C)N(c2nc(=O)n(-c3c(C(C)C)nc(N4CCNCC4)nc3C(C)C)c3nc(-c4c(N)cccc4F)c(F)cc23)C[C@H]1C` [Compound 96]: the IC50 came out at 10.8 nM.

As for `C=CC(=O)N1C[C@H](C)N(c2nc(=O)n(-c3c(C(C)C)nc(N4CCN(C)CC4)nc3C(C)C)c3nc(-c4c(N)cccc4F)c(F)cc23)C[C@H]1C` [Compound 97], the IC50 was found to be 7.3 nM.

For `C=CC(=O)N1C[C@H](C)N(c2nc(=O)n(-c3c(C4CC4)nc(N4CCNCC4)nc3C3CC3)c3nc(-c4c(N)cccc4F)c(F)cc23)C[C@H]1C` [Compound 98], the IC50 was determined as 7.4 nM.

Take `C=CC(=O)N1C[C@H](C)N(c2nc(=O)n(-c3c(C4CC4)nc(N4CCN(C)CC4)nc3C3CC3)c3nc(-c4c(N)cccc4F)c(F)cc23)C[C@H]1C` [Compound 99]: the IC50 amounted to 5.8 nM.

`C=CC(=O)N1C[C@H](C)N(c2nc(=O)n(-c3c(C4CC4)nc(N4CCNCC4)nc3C3CC3)c3nc(-c4c(O)cccc4F)c(F)cc23)C[C@H]1C` [Compound 100]: the IC50 was 14.1 nM.

Turning to `C=CC(=O)N1C[C@H](C)N(c2nc(=O)n(-c3c(C4CC4)nc(N4CCN(C)CC4)nc3C3CC3)c3nc(-c4c(O)cccc4F)c(F)cc23)C[C@H]1C` [Compound 101], the IC50 was found to be 25.8 nM.

Turning to `C=CC(=O)N1C[C@H](C)N(c2nc(=O)n(-c3c(C4CC4)nc(N4CCNCC4)nc3C3CC3)c3nc(-c4ccccc4F)c(F)cc23)C[C@H]1C` [Compound 102], the IC50 came to 37.4 nM.

For `C=CC(=O)N1C[C@H](C)N(c2nc(=O)n(-c3c(C4CC4)nc(N4CCN(C)CC4)nc3C3CC3)c3nc(-c4ccccc4F)c(F)cc23)C[C@H]1C` [Compound 103], the IC50 was 47.6 nM.

For `C=CC(=O)N1CCN(c2nc(=O)n(-c3c(C(C)C)nc(C4CC4)nc3C(C)C)c3nc(-c4c(N)cccc4F)c(F)cc23)[C@@H](C)C1` [Compound 105], the IC50 worked out at 8.8 nM.

Turning to `C=CC(=O)N1CCN(c2nc(=O)n(-c3c(C(C)C)nc(N)nc3C(C)C)c3nc(-c4c(O)cccc4F)c(Cl)cc23)[C@@H](C)C1` [Compound 106], the IC50 came out at 10.2 nM.

With `C=CC(=O)N1C[C@H](C)N(c2nc(=O)n(-c3c(C(C)C)nc(N)nc3C(C)C)c3nc(-c4c(O)cccc4F)c(Cl)cc23)C[C@H]1C` [Compound 107], the IC50 was 5.2 nM.

The same test, now with this note: NCI-H358, 5 days, Cell-titer Glo; read-out: IC50 (nM), Inhibition of NCI-H358 Cell Proliferation.
In the case of `C=CC(=O)N1CCN(c2nc(=O)n(-c3c(C)cc4c(ncn4C)c3C(C)C)c3nc(-c4ccccc4F)c(Cl)cc23)[C@@H](C)C1` [Compound 69], the IC50 turned out to be 7.8 nM.

Staying with this test, now noted: NCI-H358 IC50 comparison.
As to `C=CC(=O)N1CCN(c2nc(=O)n(-c3c(C(C)C)nc(C)nc3C(C)C)c3nc(-c4c(N)cccc4F)c(F)cc23)[C@@H](C)C1` [Compound 78], the “fold more potent: 2-amino-6-fluoro-phenyl compound vs. corresponding 2-fluoro-phenyl compound at R8” value is reported as “only slightly more potent”.
